# Test results taken from US20250136553A1, “ACYLSULFONAMIDE KAT6A INHIBITORS” (Olema Pharmaceuticals, Inc., priority 2023, published 2025).
# Biological target: human-KAT6A (MYST domain 507-778 aa) (Homo sapiens (Human), UniProt Q92794)
# Assay: KAT6A biochemical assay (TR-FRET)
# Settings: for IC50: TR-FRET, histone H4 peptide 200 nM, acetyl-CoA 600 nM, read-out: KAT6A IC50
# Source text: TR-FRET based methods were used for assaying compounds of the present invention for KAT6A enzyme inhibitory activity. TR-FRET is a homogeneous proximity assay where Europium-labelled anti-acetyl lysine antibody binds to the acetylated substrate labelled with biotin, which in turn binds to streptavidin-labelled APC fluorescence acceptor. Europium can transfer energy to APC in the complex and the interaction of two dye-labelled binding partners is detected by the energy transfer between a donor and an acceptor dye and the subsequent light emission by the acceptor dye. KAT6A transfer an acetyl group from acetyl CoA to lysine amino acids of histones/target proteins. […] The selected compound of the present invention and enzyme are incubated for 30 min on plate shaker at 300 rpm at 25° C. Next, 5 μL of substrate mix containing histone H4 peptide and acetyl-CoA in assay buffer is added to the plate. The final concentrations of H4 peptide and acetyl-CoA are 200 nM and 600 nM, respectively. Following 60 min reaction at 25° C. on plate shaker at 300 rpm, 5 μL of detection mix containing Europium-labelled anti-acetyl antibody and streptavidin-APC is added to the reaction wells. The plate is further incubated at 25° C. on shaker at 300 rpm and is read in TR-FRET mode (Ex:340 nm; Em: 615 nm and 665 nm) on a plate reader to achieve ˜5-7-fold activity. The percent inhibition was calculated from the ratio of the fluorescence (FL) intensities [(F665/F615)×10000) using the formula […]. IC50 values of the compounds were determined by fitting the dose-response data to sigmoidal curve fitting equation using Graph pad prism software V9.
# Chain of human-KAT6A (MYST domain 507-778 aa) (Q92794 507-778): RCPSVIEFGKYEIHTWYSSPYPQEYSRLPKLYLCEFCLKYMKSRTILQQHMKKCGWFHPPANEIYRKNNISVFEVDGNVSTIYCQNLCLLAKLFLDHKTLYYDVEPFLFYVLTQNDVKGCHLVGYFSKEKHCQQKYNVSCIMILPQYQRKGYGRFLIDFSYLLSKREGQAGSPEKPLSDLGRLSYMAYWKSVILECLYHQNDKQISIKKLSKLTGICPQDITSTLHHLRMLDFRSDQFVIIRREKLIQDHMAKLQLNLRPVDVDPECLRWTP
structure (smiles),measurement,setting,value
"CCc1ccc(OC)c(S(=O)(=O)NC(=O)c2ccc(Cn3cccn3)c(OC)c2)c1 [Compound 30, 4-((1H-pyrazol-1-yl)methyl)-N-((5-ethyl-2-methoxyphenyl)sulfonyl)-3-methoxybenzamide]",IC50,,11 nM
"COc1cc(C(=O)NS(=O)(=O)c2ccc(C(F)(F)F)cc2OC)ccc1Cn1cccn1 [Compound 31, 4-((1H-pyrazol-1-yl)methyl)-3-methoxy-N-((2-methoxy-4-(trifluoromethyl)phenyl)sulfonyl)benzamide]",IC50,,44 nM
"COc1cc(C(=O)NS(=O)(=O)c2cc(C(F)(F)F)ccc2OC)ccc1Cn1cccn1 [Compound 32, 4-((1H-pyrazol-1-yl)methyl)-3-methoxy-N-((2-methoxy-5-(trifluoromethyl)phenyl)sulfonyl)benzamide]",IC50,,16 nM
"COc1cccc(OC)c1S(=O)(=O)NC(=O)c1ccc(Cn2cccn2)c(OC(F)(F)F)c1 [Compound 33, 4-((1H-pyrazol-1-yl)methyl)-N-((2,6-dimethoxyphenyl)sulfonyl)-3-(trifluoromethoxy)benzamide]",IC50,,10 nM
"COc1cccc(OC)c1S(=O)(=O)NC(=O)c1ccc(Cn2cccn2)c(C)c1 [Compound 34, 4-((1H-pyrazol-1-yl)methyl)-N-((2,6-dimethoxyphenyl)sulfonyl)-3-methylbenzamide]",IC50,,36 nM
COc1cccc(OC)c1S(=O)(=O)NC(=O)c1ccc(Cn2cccn2)c(C(F)(F)F)c1 [Compound 35],IC50,,30 nM
"COc1cc(C(=O)NS(=O)(=O)c2c(OC)cccc2-n2cccn2)ccc1Cn1cccn1 [Compound 36, 4-((1H-pyrazol-1-yl)methyl)-3-methoxy-N-((2-methoxy-6-(1H-pyrazol-1-yl)phenyl)sulfonyl)benzamide]",IC50,,198 nM
"COc1cccc(OC)c1S(=O)(=O)NC(=O)c1ccc(Cn2cccn2)c(OC(F)F)c1 [Compound 37, 4-((1H-pyrazol-1-yl)methyl)-3-(difluoromethoxy)-N-((2,6-dimethoxyphenyl)sulfonyl)benzamide]",IC50,,10 nM
"COc1cc(C(=O)NS(=O)(=O)c2cc(O)ccc2OC)ccc1Cn1cccn1 [Compound 39, 4-((1H-pyrazol-1-yl)methyl)-N-((5-hydroxy-2-methoxyphenyl)sulfonyl)-3-methoxybenzamide]",IC50,,24 nM
"COc1cccc(OC)c1S(=O)(=O)NC(=O)c1ccc(Cn2cccn2)c(C2CC2)c1F [Compound 40, 4-((1H-pyrazol-1-yl)methyl)-3-cyclopropyl-N-((2,6-dimethoxyphenyl)sulfonyl)-2-fluorobenzamide]",IC50,,15 nM
"COc1cccc(OC)c1S(=O)(=O)NC(=O)c1ccc(Cn2cccn2)c(OC)c1OC [Compound 41, 4-((1H-pyrazol-1-yl)methyl)-N-((2,6-dimethoxyphenyl)sulfonyl)-2,3-dimethoxybenzamide]",inhibition at 1 µM,"@ 1 μM, reported where IC50 could not be determined, read-out: Percent inhibition at specific concentration (KAT6A)",35%
"COc1ccc(S(=O)(=O)NC(=O)c2ccc(Cn3cccn3)c(OC)c2)c(OC)c1 [Compound 42, 4-((1H-pyrazol-1-yl)methyl)-N-((2,4-dimethoxyphenyl)sulfonyl)-3-methoxybenzamide]",IC50,,8 nM
"COc1cc(OC)c(S(=O)(=O)NC(=O)c2ccc(Cn3cccn3)c(OC)c2)cc1F [Compound 43, 4-((1H-pyrazol-1-yl)methyl)-N-((5-fluoro-2,4-dimethoxyphenyl)sulfonyl)-3-methoxybenzamide]",IC50,,18 nM
"COc1cc(OC)c(S(=O)(=O)NC(=O)c2ccc(Cn3cccn3)c(OC)c2)cc1Cl [Compound 44, 4-((1H-pyrazol-1-yl)methyl)-N-((5-chloro-2,4-dimethoxyphenyl)sulfonyl)-3-methoxybenzamide]",IC50,,9 nM
"COc1cc(OC)c(S(=O)(=O)NC(=O)c2ccc(Cn3cccn3)c(OC)c2)cc1Br [Compound 45, N-(5-bromo-2,4-dimethoxy-phenyl)sulfonyl-3-methoxy-4-(pyrazol-1-ylmethyl)benzamide]",IC50,,10 nM
"COc1cc(C(=O)NS(=O)(=O)c2c(OC)ccc(Cl)c2OC)ccc1Cn1cccn1 [Compound 46, 4-((1H-pyrazol-1-yl)methyl)-N-((3-chloro-2,6-dimethoxyphenyl)sulfonyl)-3-methoxybenzamide]",IC50,,12 nM
"COc1cc(OC)c(S(=O)(=O)NC(=O)c2ccc(Cn3cccn3)c(OC)c2)c(OC)c1 [Compound 47, 4-((1H-pyrazol-1-yl)methyl)-3-methoxy-N-((2,4,6-trimethoxyphenyl)sulfonyl)benzamide]",IC50,,9 nM
"COc1cc(C(=O)NS(=O)(=O)c2c(OC)cccc2OC)c(OC)cc1Cn1cccn1 [Compound 48, 4-((1H-pyrazol-1-yl)methyl)-N-((2,6-dimethoxyphenyl)sulfonyl)-2,5-dimethoxybenzamide]",IC50,,51 nM
"COc1cccc(OC)c1S(=O)(=O)NC(=O)c1ccc(Cn2cccn2)c(Br)c1F [Compound 49, 4-((1H-pyrazol-1-yl)methyl)-3-bromo-N-((2,6-dimethoxyphenyl)sulfonyl)-2-fluorobenzamide]",IC50,,8 nM
"COc1cc(C(=O)NS(=O)(=O)c2c(OC)cccc2OC)ccc1COc1ncccn1 [Compound 50, N-((2,6-dimethoxyphenyl)sulfonyl)-3-methoxy-4-((pyrimidin-2-yloxy)methyl)benzamide]",IC50,,96 nM
"COc1cc(C(=O)NS(=O)(=O)c2ccccc2OC(F)F)ccc1Cn1cccn1 [Compound 51, 4-((1H-pyrazol-1-yl)methyl)-N-((2-(difluoromethoxy)phenyl)sulfonyl)-3-methoxybenzamide]",IC50,,51 nM
"COc1cc(C(=O)NS(=O)(=O)c2c(OC)cccc2OC2CC2)ccc1Cn1cccn1 [Compound 52, 4-((1H-pyrazol-1-yl)methyl)-N-((2-cyclopropoxy-6-methoxyphenyl)sulfonyl)-3-methoxybenzamide]",IC50,,9 nM
"COc1cc(C(=O)NS(=O)(=O)c2ccccc2OCc2ccccn2)ccc1Cn1cccn1 [Compound 53, 4-((1H-pyrazol-1-yl)methyl)-3-methoxy-N-((2-(pyridin-2-ylmethoxy)phenyl)sulfonyl)benzamide]",IC50,,31 nM
"COc1cc(C(=O)NS(=O)(=O)c2cc(C(C)(C)O)ccc2OC)ccc1Cn1cccn1 [Compound 54, 4-((1H-pyrazol-1-yl)methyl)-N-((5-(2-hydroxypropan-2-yl)-2-methoxyphenyl)sulfonyl)-3-methoxybenzamide]",IC50,,3 nM
"COc1cc(C(=O)NS(=O)(=O)c2c(OC)cccc2OC(C)C)ccc1Cn1cccn1 [Compound 55, 4-((1H-pyrazol-1-yl)methyl)-N-((2-isopropoxy-6-methoxyphenyl)sulfonyl)-3-methoxybenzamide]",IC50,,11 nM
"COc1cc(C(=O)NS(=O)(=O)c2c(OC)ccc3c2CCCC3)ccc1Cn1cccn1 [Compound 57, 4-((1H-pyrazol-1-yl)methyl)-3-methoxy-N-((2-methoxy-5,6,7,8-tetrahydronaphthalen-1-yl)sulfonyl)benzamide]",IC50,,11 nM
"COc1cc(C(=O)NS(=O)(=O)c2c(OC)cccc2OC)ccc1COc1nccs1 [Compound 58, N-((2,6-dimethoxyphenyl)sulfonyl)-3-methoxy-4-((thiazol-2-yloxy)methyl)benzamide]",IC50,,177 nM
"COc1cc(C(=O)NS(=O)(=O)c2c(OC)cccc2OC)ccc1Oc1nccs1 [Compound 59, N-((2,6-dimethoxyphenyl)sulfonyl)-3-methoxy-4-(thiazol-2-yloxy)benzamide]",IC50,,33 nM
